By EC50 is commonly meant the midpoint of the concentration-response curve.

Experimental findings from patent publication US9868766B2, “Peptides as oxytocin agonists” (Hoffmann-La Roche Inc., priority 2012, dated 2018) are described below.

Positions of bridges follow the written chain, without caps; N, C: chain ends. Non-standard residues stand in square brackets, D forms with d. Residues, ends and D or L forms follow the SMILES beside them. Phe(4-NH2) = Nc1ccc(C[C@H](N)C(=O)O)cc1; Cha = N[C@@H](CC1CCCCC1)C(=O)O; aThr = C[C@H](O)[C@H](N)C(=O)O; Tle = CC(C)(C)[C@H](N)C(=O)O; Sar = CNCC(=O)O

What all share (type): cell-based
Test [1] has as its target T1, human V1a receptor (Homo sapiens, UniProt P37288).
T1 construct: expressed in transfected cells
Description: Calcium flux assay (FLIPR), agonist mode, CHO cells expressing human V1a. As to conditions: CHO cells stably expressing human V1a; calcium flux; read-out: hV1a EC50. The text has this: (§1) Chines Hamster Ovary (CHO) cells were transfected with expression plasmids encoding either the human V1a, the human Oxytocin (OTR) or the humanV2 receptor, the later in combination with the chimeric Gqs5 G protein to redirect the signal to Calcium flux. Stable cells were cloned by limiting dilution to yield monoclonal cell lines expressing either human V1a, human V2+Gqs5 or human OTR receptors and selected based on functional responses detected on a fluorometric imaging plate reader (FLIPR) detecting Calcium flux in the cell after receptor activation. The stable cell lines were grown in F-12 K Nutrient Mixture (Kaighns Modification), containing 10% foetal bovine serum (FBS), 1% penicillin-streptomycin, 1% L-glutamate, 200 ug/ml Geneticin at 37° C. in a 10% CO2 incubator at 95% humidity.
(§2) On the afternoon before the assay, cells were plated at a density of 50,000 cells/well into black 96 well plates with clear bottoms to allow cell inspection and fluorescence measurements from the bottom of each well. The density of cells was sufficient to yield a confluent monolayer the next day. Hanks balanced salt solution, without phenol red, containing 20 mM HEPES (pH 7.3) and 2.5 mM probenecid (assay buffer) was prepared fresh for each experiment. Compound dilutions were made using a Beckman Biomek 2000 laboratory automation workstation, in assay buffer containing 1% DMSO. The dye-loading buffer consisted of a final concentration of 2 μM Fluo-4-AM (dissolved in DMSO and pluronic acid) in assay buffer. The existing culture media was removed from the wells and 100 μl of the dye-loading buffer was added to each well and incubated for approximately 60 min at 37° C. in a 5% CO2 incubator at 95% humidity. Once dye-loaded, the cells were washed thoroughly on an Embla cell washer with the assay buffer to remove any unincorporated dye. Exactly 100 μl assay buffer was left in each well.
(§3) Each 96 well plate containing dye-loaded cells was placed into the FLIPR machine and the laser intensity set to a suitable level to detect low basal fluorescence. To test compounds as agonists, 25 μl diluted compound was added to the plate 10 seconds into the fluorescent measurements and fluorescent response was recorded for 5 minutes. The fluorescence data was normalized to the endogenous full agonist dose-response set at 100% for the maximum response and 0% for the minimum. Each agonist concentration-response curve was constructed using a four parameter logistic equation with Microsoft Excel XLFit as follows: Y=Minimum+((Maximum−Minimum)/(1+10^(Log EC50-X)nH)), where y is the % normalized fluorescence, minimum is the minimum y, maximum is the maximum y, log EC50 is the log10 concentration which produces 50% of the maximum induced fluorescence, x is the log10 of the concentration of the agonist compound and H is the slope of the curve (the Hill Coefficient). The maximum value gives the efficacy of the agonist test compound in percentage. The concentration of agonist that produced a half-maximal response is represented by the EC50 value, the logarithm of which yielded the pEC50 value.
In general terms: A change in cytosolic calcium serves as a functional read-out for many receptors and channels.

The target in test [2] is T2, human Oxytocin (OTR) receptor (Homo sapiens, UniProt P30559).
T2 construct: expressed in transfected cells
T2 sequence (P30559 1-389): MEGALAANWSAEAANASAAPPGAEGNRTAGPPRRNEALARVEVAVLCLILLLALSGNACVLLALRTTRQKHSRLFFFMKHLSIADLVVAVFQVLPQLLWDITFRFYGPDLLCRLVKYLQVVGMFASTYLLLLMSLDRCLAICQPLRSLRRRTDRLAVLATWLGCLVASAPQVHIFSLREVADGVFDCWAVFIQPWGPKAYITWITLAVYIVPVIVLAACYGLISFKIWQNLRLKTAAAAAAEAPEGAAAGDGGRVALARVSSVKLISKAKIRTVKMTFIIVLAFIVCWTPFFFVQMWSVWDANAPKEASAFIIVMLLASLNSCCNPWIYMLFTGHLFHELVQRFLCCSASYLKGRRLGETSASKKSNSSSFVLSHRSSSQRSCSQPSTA
Description: Calcium flux assay (FLIPR), agonist mode, CHO cells expressing human OTR. As to conditions: for EC50: CHO cells stably expressing human OTR, calcium flux, read-out: hOT EC50; for hOT efficacy (%) / Emax: maximum response normalized to endogenous full agonist = 100%; for Emax: CHO, read-out: hOT efficacy (%). An outline of the steps:
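Monoclonal CHO cells stably expressing the receptor were loaded with 2 μM Fluo-4-AM in HBSS with 20 mM HEPES (pH 7.3) and 2.5 mM probenecid. Compound was added 10 s into reading and fluorescence followed for 5 min.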

For test [3], the target named is T3, human V2 receptor (Homo sapiens, UniProt P30518).
T3 construct: expressed in transfected cells
Description: Calcium flux assay (FLIPR), agonist mode, CHO cells expressing human V2 + Gqs5. As to conditions: for EC50: CHO cells stably expressing human V2 + chimeric Gqs5, calcium flux, read-out: hV2 EC50; for Emax: CHO, read-out: hV2 efficacy (%).
Excerpt: as §1, §2, §3

The mark [4] stands for this setting: maximum response normalized to endogenous full agonist = 100%.

T3 sequence (P30518 whole entry): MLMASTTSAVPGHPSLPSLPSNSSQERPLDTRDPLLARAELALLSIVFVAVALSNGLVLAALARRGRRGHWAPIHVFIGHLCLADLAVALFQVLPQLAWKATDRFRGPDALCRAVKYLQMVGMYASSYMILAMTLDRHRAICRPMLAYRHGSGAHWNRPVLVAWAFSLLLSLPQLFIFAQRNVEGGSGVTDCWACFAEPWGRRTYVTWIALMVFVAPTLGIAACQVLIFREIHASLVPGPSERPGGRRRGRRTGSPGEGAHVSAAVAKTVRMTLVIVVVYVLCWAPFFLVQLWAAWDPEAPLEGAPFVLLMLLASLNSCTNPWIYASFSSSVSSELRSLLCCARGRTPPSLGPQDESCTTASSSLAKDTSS
T1 sequence (P37288 whole entry): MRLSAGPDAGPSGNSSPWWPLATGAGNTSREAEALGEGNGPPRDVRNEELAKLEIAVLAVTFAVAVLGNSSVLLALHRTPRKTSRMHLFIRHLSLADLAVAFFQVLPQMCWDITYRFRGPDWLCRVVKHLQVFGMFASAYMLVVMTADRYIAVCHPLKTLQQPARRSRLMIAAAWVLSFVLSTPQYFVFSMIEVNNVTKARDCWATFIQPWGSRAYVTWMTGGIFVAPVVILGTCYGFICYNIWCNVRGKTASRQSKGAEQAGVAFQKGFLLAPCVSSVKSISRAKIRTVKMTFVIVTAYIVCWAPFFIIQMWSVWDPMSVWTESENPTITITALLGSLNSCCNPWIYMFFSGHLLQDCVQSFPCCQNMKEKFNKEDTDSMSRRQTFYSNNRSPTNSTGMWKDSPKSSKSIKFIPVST

Turning to `CC[C@H](C)[C@@H]1NC(=O)[C@H](Cc2ccc(O)cc2)NC(=O)CNC(=O)CC[C@@H](C(=O)N(C)CC(=O)N[C@H](C(=O)NCC(N)=O)C(C)C)NC(=O)[C@H](CC(N)=O)NC(=O)[C@H](CCC(N)=O)NC1=O` [Example 26] (GYIQNE[Sar]VG-NH2; lactam N-6), the figures for the EC50 in test [1], in test [2] and in test [3] were more than 10 µM, 0.002 µM and 2.62 µM, respectively. Also, the “hOT efficacy (%)” value in test [2] came out at 124%. Also, in test [3] (setting [4]), the Emax came out at 102%.

For the molecule `CC[C@H](C)[C@@H]1NC(=O)[C@H](Cc2ccc(O)cc2)NC(=O)CNC(=O)CC[C@@H](C(=O)N(C)CC(=O)N[C@@H](CCC(N)=O)C(=O)NCC(N)=O)NC(=O)[C@H](CC(N)=O)NC(=O)[C@H](CCC(N)=O)NC1=O` [Example 31] (GYIQNE[Sar]QG-NH2; lactam N-6), the EC50 in test [1] is more than 10 µM; in test [2] it was 0.009 µM; in test [3], 2.71 µM. Also, the Emax in test [2] was found to be 131%; in test [3] (setting [4]), 91%.

For the molecule `CC[C@H](C)[C@@H]1NC(=O)[C@H](Cc2ccc(O)cc2)NC(=O)CNC(=O)CC[C@@H](C(=O)N(C)CC(=O)N[C@H](C(=O)NCC(N)=O)[C@H](C)O)NC(=O)[C@H](CC(N)=O)NC(=O)[C@H](CCC(N)=O)NC1=O` [Example 25] (GYIQNE[Sar][aThr]G-NH2; lactam N-6), the figures for the EC50 in test [1], in test [2] and in test [3] were more than 10 µM, 0.003 µM and 3.82 µM, respectively. Besides, the “hOT efficacy (%)” value in test [2] was 125%. In addition, the Emax in test [3] (setting [4]) is 103%.

`CC[C@H](C)[C@@H]1NC(=O)[C@H](Cc2ccc(O)cc2)NC(=O)CNC(=O)CC[C@@H](C(=O)N(C)CC(=O)N[C@@H](Cc2ccccc2)C(=O)NCC(N)=O)NC(=O)[C@H](CC(N)=O)NC(=O)[C@H](CCC(N)=O)NC1=O` [Example 27] (GYIQNE[Sar]FG-NH2; lactam N-6): the EC50 is more than 10 µM in test [1], 0.005 µM in test [2] and 1.5 µM in test [3]. Further, the “hOT efficacy (%)” value in test [2] is recorded as 128%. Further, the Emax in test [3] (setting [4]) was found to be 101%.

On to `CC[C@H](C)[C@@H]1NC(=O)[C@H](Cc2ccc(O)cc2)NC(=O)CNC(=O)CC[C@@H](C(=O)N(C)CC(=O)N[C@@H](CC2CCCCC2)C(=O)NCC(N)=O)NC(=O)[C@H](CC(N)=O)NC(=O)[C@H](CCC(N)=O)NC1=O` [Example 39] (GYIQNE[Sar][Cha]G-NH2; lactam N-6), for which the EC50 in test [1] was more than 27 µM; in test [2], 0.0004 µM; in test [3], 3.71 µM. The results for the Emax in test [2] and in test [3] (setting [4]) were 122% and 111%, respectively.

`CC[C@H](C)[C@@H]1NC(=O)[C@H](Cc2ccc(O)cc2)NC(=O)CNC(=O)CC[C@@H](C(=O)N(C)CC(=O)N[C@H](C(=O)NCC(N)=O)C(C)(C)C)NC(=O)[C@H](CC(N)=O)NC(=O)[C@H](CCC(N)=O)NC1=O` [Example 44] (GYIQNE[Sar][Tle]G-NH2; lactam N-6): the EC50 in test [1] is more than 27 µM; in test [2], 0.0005 µM; in test [3], 1.23 µM. Further, the Emax in test [2] stood at 117%; in test [3] (setting [4]), 112%.

Consider `CC[C@H](C)[C@@H]1NC(=O)[C@H](Cc2ccc(O)cc2)NC(=O)CNC(=O)CC[C@@H](C(=O)N(C)CC(=O)N[C@@H](Cc2ccc(N)cc2)C(=O)NCC(N)=O)NC(=O)[C@H](CC(N)=O)NC(=O)[C@H](CCC(N)=O)NC1=O` [Example 1] (GYIQNE[Sar][Phe(4-NH2)]G-NH2; lactam N-6), for which the results for the EC50 in test [1], in test [2] and in test [3] were more than 27 µM, 0.01 µM and 4.8 µM, respectively. The “hOT efficacy (%)” value in test [2] worked out at 111%. Moreover, the Emax in test [3] (setting [4]) stood at 107%.

Regarding `CC[C@H](C)[C@@H]1NC(=O)[C@H](Cc2ccc(O)cc2)NC(=O)CNC(=O)CC[C@@H](C(=O)N(C)CC(=O)N[C@@H](Cc2ccc(O)cc2)C(=O)NCC(N)=O)NC(=O)[C@H](CC(N)=O)NC(=O)[C@H](CCC(N)=O)NC1=O` [Example 32] (GYIQNE[Sar]YG-NH2; lactam N-6), the EC50 in test [1] was more than 10 µM; in test [2], 0.004 µM; in test [3], 1.99 µM. Further, the Emax is 119% in test [2] and 106% in test [3] (setting [4]).

For `CC[C@H](C)[C@@H]1NC(=O)[C@H](Cc2ccc(O)cc2)NC(=O)CNC(=O)CC[C@@H](C(=O)N(C)CC(=O)N[C@@H](Cc2c[nH]cn2)C(=O)NCC(N)=O)NC(=O)[C@H](CC(N)=O)NC(=O)[C@H](CCC(N)=O)NC1=O` [Example 34] (GYIQNE[Sar]HG-NH2; lactam N-6), the EC50 in test [1] is more than 10 µM; in test [2], 0.01 µM; in test [3], 0.145 µM. Besides, the “hOT efficacy (%)” value in test [2] was 136%. The “hV2 efficacy (%)” value in test [3] (setting [4]) came to 120%.
